Assay results published in patent publication US8263139B2 (Metaproteonics, LLC, priority 2005, dated 2012).
Marks after values point to notes of the source that are not given here.

Experiments:
3T3-L1 adipocytes [1] = assay: Adiponectin secretion from TNFα-treated 3T3-L1 adipocytes; format: cell-based, murine; conditions: for Concentration eliciting maximum adiponectin secretion: of the doses tested
Method: 3T3-L1 cells were seeded at an initial density of 1×10^4 cells/cm^2 in 96-well plates. For two days, the cells were allowed grow to reach confluence. Following confluence, the cells were forced to differentiate into adipocytes by the addition of differentiation medium; this medium consisted of (1) 10% FBS/DMEM (high glucose); (2) 0.5 mM methylisobutylxanthine; (3) 0.5 μM dexamethasone and (4) 10 μg/ml insulin (MDI medium). From Day 3 through Day 5, the medium was changed to post-differentiation medium consisting of 10% FBS in DMEM. […] On Day 6, the supernatant medium was sampled for adiponectin determination.
Statistical Calculations and Interpretation—All assays were preformed in duplicate. […] Differences among the doses and test agents were determined using the Student's t-test without correction for multiple comparisons; the nominal five percent probability of a type I error was selected.

3T3-L1 adipocytes [2] = assay: Lipogenesis in 3T3-L1 adipocytes (Oil Red O / BODIPY); format: cell-based, murine
Method: Prior to experiments, cells were cultured in DMEM containing 10% FBS-HI added 50 units penicillin/ml and 50 μg streptomycin/ml, and maintained in log phase prior to experimental setup. Cells were grown in a 5% CO2 humidified incubator at 37° C. Components of the pre-confluent medium included (1) 10% FBS/DMEM containing 4.5 g glucose/L; (2) 50 U/ml penicillin; and (3) 50 μg/ml streptomycin. Growth medium was made by adding 50 ml of heat inactivated FBS and 5 ml of penicillin/streptomycin to 500 ml DMEM. This medium was stored at 4° C. Before use, the medium was warmed to 37° C. in a water bath.
3T3-T1 cells were seeded at an initial density of 6×10^4 cells/cm^2 in 24-well plates. For two days, the cells were allowed grow to reach confluence. Following confluence, the cells were forced to differentiate into adipocytes by the addition of differentiation medium; this medium consisted of (1) 10% FBS/DMEM (high glucose); (2) 0.5 mM methylisobutylxanthine; (3) 0.5 μM dexamethasone and (4) 10 μg/ml insulin (MDI medium). After three days, the medium was changed to post-differentiation medium consisting of 10 μg/ml insulin in 10% FBS/DMEM.
Whenever fresh media were added, fresh test material was also added.
Monolayer cells were washed with PBS (phosphate buffered saline, Mediatech) and fixed with 10% formaldehyde for ten minutes. Fixed cells were stained with an Oil Red O working solution of three parts 0.6% Oil Red O/isopropanol stock solution and two parts water for one hour and the excess stain was washed once with water. The resulting stained oil droplets were extracted from the cells with isopropanol and quantified by spectrophotometric analysis at 540 nm (MEL312e BIO-KINETICS READER, Bio-Tek Instruments, Winooski, Vt.).
Briefly, media were removed and cells were washed once with non-sterile PBS. […] After 15 min on an orbital shaker (DS-500, VWR Scientific Products, South Plainfield, N.J.) at ambient temperature, the cells were washed with 100 μl PBS followed by the addition of 100 μl PBS for reading for spectrofluorometric determination of BODIPY incorporation into the cells. […]

[3] = Collagen induced rheumatoid arthritis murine model, arthritic index; format: in vivo, mouse; conditions: 10 mg/kg
Method: The mice were injected intradermally on day 0 with a mixture containing 100 μg of type II collagen and 100 μg of Mycobacterium tuberculosis in squalene. A booster injection was repeated on day 21. Mice were examined on days 22-27 for arthritic signs with nonresponding mice removed from the study.
Arthritic symptomology was assessed (scored 0-4) for each paw using a arthritic index as described below. Under this arthritic index 0=no visible signs; 1=edema and/or erythema: single digit; 2=edema and or erythema: two joints; 3=edema and or erythema: more than two joints; and 4=severe arthritis of the entire paw and digits associated with ankylosis and deformity.

3T3-L1 adipocytes [4] = assay: Adiponectin secretion in LPS/3T3-L1 adipocytes; format: cell-based, murine; conditions: at the concentration of maximum stimulation; NS = not significantly different from the LPS control
3T3-L1 adipocytes [5] = assay: IL-6 secretion in LPS/3T3-L1 adipocytes; format: cell-based, murine; conditions: at the concentration of maximum inhibition, with 100 ng LPS/ml

CCc1ccc(CCOc2ccc(CC3SC(=O)NC3=O)cc2)nc1 (centres unmarked) [pioglitazone]
maximal adiponectin secretion, times the TNFα treatment (3T3-L1 adipocytes [1]; 10 ng TNFα/ml): 1.47
Concentration eliciting maximum adiponectin secretion over four doses (3T3-L1 adipocytes [1]; 10 ng TNFα/ml, Acacia catechu #5669 fractions): 1.25 µg/mL

COc1cc(O)c(CC=C(C)C)c(O)c1C(=O)/C=C/c1ccc(O)cc1 [xanthohumol]
adipogenic / lipogenic response compared with controls (3T3-L1 adipocytes [2]): comparable to indomethacin and troglitazone

C[C@]12C=CC(=O)C=C1CC[C@@H]1[C@@H]2[C@@H](O)C[C@@]2(C)[C@H]1CC[C@]2(O)C(=O)CO [prednisolone]
arthritic index [3]: Significant reductions

CC(C)CCC1=C(O)C(C(=O)C(C)C)=C(O)C(CCC(C)C)(CCC(C)C)C1=O [hexahydrocolupulone]
adipogenic / lipogenic response compared with controls (3T3-L1 adipocytes [2]): failed to elicit a lipogenic response

Cc1c(C)c2c(c(C)c1O)CCC(C)(COc1ccc(CC3SC(=O)NC3=O)cc1)O2 (centres unmarked) [troglitazone]
Concentration eliciting maximum adiponectin secretion (3T3-L1 adipocytes [1]; 10 ng TNFα/ml): 0.625 µg/mL

COc1ccc2c(c1)c(CC(=O)O)c(C)n2C(=O)c1ccc(Cl)cc1 [indomethacin]
Concentration eliciting maximum adiponectin secretion (3T3-L1 adipocytes [1]; 2 ng TNFα/ml): 1.25 µg/mL
Concentration eliciting maximum adiponectin secretion (3T3-L1 adipocytes [1]; 10 ng TNFα/ml): 5.0 µg/mL
% Stimulation (maximum stimulation of adiponectin secretion) (3T3-L1 adipocytes [4]): 9%
% Inhibition (maximum inhibition of IL-6 secretion) (3T3-L1 adipocytes [5]): 53* %

Beta acids
adipogenic / lipogenic response compared with controls (3T3-L1 adipocytes [2]): comparable to indomethacin and troglitazone
